Molecular target: htau40 and tubulin dimer (Homo sapiens, UniProt P10636)
Assay: Light scattering, tau-promoted microtubule assembly
Assay type: biochemical
Settings: 60 μM compound, 10 μM tau, 30 μM tubulin
Experimental: The repeat domain of tau is not only important for PHF aggregation but also for the physiological function of microtubule binding. Microtubule polymerisation assays were performed in the absence and presence of compounds (FIG. 9).
The ability of tau to promote microtubule assembly was monitored by light scattering at 350 nm in a Tecan spectrophotometer model Safire (Tecan, Crailsheim, Germany). Tau protein (10 μM) was mixed with tubulin dimer (30 μM) and GTP (1 mM) at 4° C. in polymerisation buffer (100 mM Na-PIPES pH 6.9, 1 mM EGTA, 1 mM MgSO4, 1 mM DTT), with a final volume of 40 μl. Htau40 and inhibitor compounds (60 μM) were added last. After rapid mixing, the samples were pipetted into a Greiner transparent flat bottom 384 well plate (4 mm path length), which was prewarmed at 37° C. The reaction was started by incubating the cooled components of the reaction at 37° C. The assembly of tubulin into microtubules was monitored over time by a change in turbidity. Three parameters were extracted from curves. The maximum turbidity at steady state, the rate of assembly, and the lag time between the temperature jump and the start of the turbidity rise.
FIG. 9: Effect of compounds on microtubule binding 30 μM tubulin dimer was incubated in a microtiter plate at 37° C. in the absence and presence of htau40 (10 μM) and 60 μM compound. Absorbance was taken at 350 nm and plotted versus time. […]

Chain of htau40 and tubulin dimer (P10636 1-441 isoform P10636-8): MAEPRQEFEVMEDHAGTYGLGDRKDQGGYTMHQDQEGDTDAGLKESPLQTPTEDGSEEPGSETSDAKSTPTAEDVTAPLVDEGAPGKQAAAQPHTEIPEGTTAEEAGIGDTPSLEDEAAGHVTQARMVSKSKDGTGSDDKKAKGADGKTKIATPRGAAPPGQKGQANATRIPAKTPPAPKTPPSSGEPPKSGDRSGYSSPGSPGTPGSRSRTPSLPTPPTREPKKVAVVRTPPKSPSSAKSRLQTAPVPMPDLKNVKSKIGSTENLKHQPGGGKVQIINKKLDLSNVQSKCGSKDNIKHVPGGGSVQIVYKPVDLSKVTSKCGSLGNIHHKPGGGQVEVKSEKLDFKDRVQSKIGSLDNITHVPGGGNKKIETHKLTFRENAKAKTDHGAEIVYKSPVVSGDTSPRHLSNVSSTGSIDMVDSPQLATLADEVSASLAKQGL

rate and extent of microtubule polymerisation: not significantly affected
Structure (SMILES): Nc1c(/N=N/c2ccc(-c3ccc(/N=N/c4cc(S(=O)(=O)O)c5ccccc5c4N)cc3)cc2)cc(S(=O)(=O)O)c2ccccc12 [Congo Red]

— patent US20060223812A1, “Treating neurodegenerative conditions” (MAX-PLANCK-GESELLSCHAFT ZUR FORDERUNGDER WISSENSCHAFTEN, …, priority 2004, published 2006)
